Structures can show the parent of a compound that is named as a salt.
Molecular target: T1, FVIIa (Homo sapiens, UniProt P08709)
T1 construct: with about 1% of the total amount in the proteolytically active form factor VIIa
Test: FVIIa Ki (25° C.): FVIIa peptide substrate assay
Type: biochemical
Settings: S2288 peptide substrate, full-length human TF
Experimental: The effectiveness of compounds of the present invention as inhibitors of the coagulation Factors, VIIa, IXa, Xa, XIa, XIIa, plasma kallikrein or thrombin, tissue kallikrein and activated protein C, can be determined using a relevant purified serine protease, respectively, and an appropriate synthetic substrate. The rate of hydrolysis of the chromogenic or fluorogenic substrate by the relevant serine protease was measured both in the absence and presence of compounds of the present invention. […] A decrease in the rate of absorbance or fluorescence change in the presence of inhibitor is indicative of enzyme inhibition. Such methods are known to one skilled in the art. The results of this assay are expressed as the inhibitory constant, Ki.
a. FVIIa Ki (25° C.): FVIIa Peptide Substrate Assay
S2288 (range of concentrations) and FVIIa inhibitor were incubated for 15 minutes (min) at 25° C. Reactions were initiated by addition of a solution of full-length human TF (6 nM), FVIIa (0.75 nM), and PCPS (25 μM). FVIIa hydrolyses S2288, which was monitored for up to 60 min at 405 nm. Steady-state reaction velocity data (vs) was globally fit to Equation 1 for competitive inhibition. vs=Vmax[S]/([S]+Km(1+[I]/Ki)) (Eq. 1) where Vmax is maximum velocity, [S] is substrate concentration, Km is the Michaelis-Menten constant, [I] is the inhibitor concentration, and Ki is the inhibitor dissociation constant (GraFit, version 5, Erithacus Software Ltd, West Sussex, UK).

T1 sequence (P08709 213-466 limits assumed): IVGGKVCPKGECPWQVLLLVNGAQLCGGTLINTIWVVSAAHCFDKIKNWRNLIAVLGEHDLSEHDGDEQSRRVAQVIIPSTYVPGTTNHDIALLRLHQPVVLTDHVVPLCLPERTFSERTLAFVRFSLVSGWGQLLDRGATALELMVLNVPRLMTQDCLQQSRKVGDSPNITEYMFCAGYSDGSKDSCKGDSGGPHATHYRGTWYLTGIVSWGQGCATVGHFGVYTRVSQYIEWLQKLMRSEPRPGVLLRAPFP
T1 sequence (P08709 61-212 limits assumed): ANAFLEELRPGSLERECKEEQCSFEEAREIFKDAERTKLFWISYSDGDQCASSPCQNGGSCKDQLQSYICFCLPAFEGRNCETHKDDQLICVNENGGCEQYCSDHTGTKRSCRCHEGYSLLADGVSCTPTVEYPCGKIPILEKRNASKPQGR
T1 sequence (P13726 33-295 partner): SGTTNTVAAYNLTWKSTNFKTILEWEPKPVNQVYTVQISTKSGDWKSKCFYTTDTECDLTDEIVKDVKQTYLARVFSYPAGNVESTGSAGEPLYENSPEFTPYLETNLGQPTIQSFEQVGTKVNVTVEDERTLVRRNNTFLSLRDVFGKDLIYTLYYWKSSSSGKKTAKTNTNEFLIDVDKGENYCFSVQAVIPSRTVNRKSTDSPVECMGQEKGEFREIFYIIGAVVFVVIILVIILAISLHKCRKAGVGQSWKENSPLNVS

Row | Molecule | Ki [nM]
1 | 4-((R)-16-Difluoromethoxy-17-fluoro-3,12-dioxo-2,13-diaza-tricyclo[13.3.1.1^6,10]icosa-1(19),6,8,10(20),15,17-hexaen-11-ylamino)-benzamidine trifluoroacetic acid salt [Example 37] | 11
2 | COc1ccc2cc1[C@H](C)CN(C)C(=O)Nc1ccc(S(=O)(=O)C3CC3)c(c1)CN(C)C(=O)C2Nc1ccc2c(N)nccc2c1 (mixture of isomers) [Example 12, (S)-5-(1-Amino-isoquinolin-6-ylamino)-19-cyclopropanesulfonyl-9-methoxy-3,11,13-trimethyl-3,13,15-triaza-tricyclo[14.3.1.1^6,10]henicosa-1(20),6(21),7,9,16,18-hexaene-4,14-dione trifluoroacetic acid salt] | 47
3 | CN1Cc2cc(ccc2S(=O)(=O)C2CC2)NC(=O)OCc2cccc(c2)[C@@H](Nc2ccc3c(N)nccc3c2)C1=O (single isomer, unassigned) [Example 3] | 560
4 | CN1Cc2cc(ccc2S(=O)(=O)C2CC2)NC(=O)OCC(C)(C)c2cccc(c2)[C@@H](Nc2ccc3c(N)nccc3c2)C1=O (single isomer, unassigned) [Example 4] | 1480
5 | COc1ccc2cc1CCOC(=O)Nc1ccc(S(=O)(=O)C3CC3)c(c1)CN(C)C(=O)[C@@H]2Nc1ccc2c(N)nccc2c1 (single isomer, unassigned) [Example 6] | 44
6 | C[C@@H]1COC(=O)Nc2ccc(S(=O)(=O)C3CC3)c(c2)CN(C)C(=O)[C@H](Nc2ccc3c(N)nccc3c2)c2cccc1c2 (single isomer, unassigned) [Example 7] | 115
7 | COc1ccc2cc1CCC(=O)Nc1ccc(S(=O)(=O)C3CC3)c(c1)CN(C)C(=O)[C@@H]2Nc1ccc2c(N)ncc(F)c2c1 (single isomer, unassigned) [Example 11] | 5
8 | COc1cc2cc(c1)[C@@H](Nc1ccc3c(N)ncc(F)c3c1)C(=O)N(C)Cc1cc(ccc1S(=O)(=O)C1CC1)NC(=O)CC2 (single isomer, unassigned) [Example 15] | 6
9 | CN1Cc2cc(ccc2S(=O)(=O)C2CC2)NC(=O)CCc2cccc(c2)[C@@H](Nc2ccc3c(N)ncc(F)c3c2)C1=O (single isomer, unassigned) [Example 17] | 7
10 | CN1Cc2cc(ccc2S(=O)(=O)C2CC2)NC(=O)CCc2cc(ccc2OCc2ccccc2)[C@@H](Nc2ccc3c(N)ncc(F)c3c2)C1=O (single isomer, unassigned) [Example 18] | 6
11 | CN1CCc2cccc(c2)[C@@H](Nc2ccc3c(N)ncc(F)c3c2)C(=O)N(C)Cc2cc(ccc2S(=O)(=O)C2CC2)NC1=O (single isomer, unassigned) [Example 28] | 14
12 | CN1Cc2cc(ccc2S(=O)(=O)C2CC2)NC(=O)N(Cc2ccccc2)CCc2cccc(c2)[C@@H](Nc2ccc3c(N)ncc(F)c3c2)C1=O (single isomer, unassigned) [Example 29] | 80
13 | COc1c(F)cc2cc1CCC(=O)Nc1ccc(S(=O)(=O)C3CC3)c(c1)CN(C)C(=O)[C@@H]2Nc1ccc2c(N)ncc(F)c2c1 (single isomer, unassigned) [Example 30] | 10
14 | C[C@H]1CC(=O)Nc2ccc(S(=O)(=O)C3CC3)c(c2)CN(C)C(=O)[C@H](Nc2ccc3c(N)ncc(F)c3c2)c2ccc(OCC(F)F)c1c2 (single isomer, unassigned) [Example 32, trifluoroacetic acid salt] | 31
15 | CN1CCc2cccc(c2)[C@@H](Nc2ccc(C(=N)N)cc2)C(=O)N(C)Cc2cc(cc(F)c2OC(F)F)NC1=O (single isomer, unassigned) [Example 35, trifluoroacetic acid salt] | 6
16 | CN1CCc2cc(ccc2OCC(F)F)[C@@H](Nc2ccc3c(N)ncc(F)c3c2)C(=O)N(C)Cc2cc(ccc2S(=O)(=O)C(F)F)NC1=O (single isomer, unassigned) [Example 39, trifluoroacetic acid salt] | 120
17 | CN1Cc2cc(ccc2S(=O)(=O)C2CC2)NC(=O)NCCc2cccc(c2)[C@@H](Nc2ccc3c(N)ncc(F)c3c2)C1=O (single isomer, unassigned) [Example 41, trifluoroacetic acid salt] | 17
18 | CN1Cc2cc(ccc2S(=O)(=O)C2CC2)NC(=O)OCCc2cccc(c2)[C@@H](Nc2ccc3c(N)nccc3c2)C1=O [Example 1, (R)-5-(1-Amino-isoquinolin-6-ylamino)-19-cyclopropanesulfonyl-3-methyl-13-oxa-3,15-diaza-tricyclo[14.3.1.1^6,10]henicosa-1(19),6(21),7,9,16(20),17-hexaene-4,14-dione trifluoroacetic acid salt+Enantiomer] | 188
19 | CN1Cc2cc(ccc2S(=O)(=O)C2CC2)NC(=O)OCC2(CC2)c2cccc(c2)C(Nc2ccc3c(N)nccc3c2)C1=O (centres unmarked) [Example 5, trifluoroacetic acid salt] | 950
20 | COc1ccc2cc1COCC(=O)Nc1ccc(S(=O)(=O)C3CC3)c(c1)CN(C)C(=O)[C@@H]2Nc1ccc2c(N)nccc2c1 [Example 9, (R)-5-(1-Amino-isoquinolin-6-ylamino)-19-cyclopropanesulfonyl-9-methoxy-3-methyl-12-oxa-3,15-diaza-tricyclo[14.3.1.1^6,10]henicosa-1(19),6(21),7,9,16(20),17-hexaene-4,14-dione trifluoroacetic acid salt+Enantiomer] | 23
21 | CN1Cc2cc(ccc2S(=O)(=O)C2CC2)NC(=O)COc2cccc(c2)[C@@H](Nc2ccc3c(N)nccc3c2)C1=O [Example 10, (R)-14-(1-Amino-isoquinolin-6-ylamino)-9-cyclopropanesulfonyl-12-methyl-2-oxa-5,12-diaza-tricyclo[13.3.1.1^6,10]icosa-1(18),6(20),7,9,15 (19),16-hexaene-4,13-dione trifluoroacetic acid salt+Enantiomer] | 714
22 | CN1CCc2cc(ccc2OCc2ccccc2)C(Nc2ccc3c(N)ncc(F)c3c2)C(=O)N(C)Cc2cc(ccc2S(=O)(=O)C2CC2)NC1=O (centres unmarked) [Example 19, 5-(1-Amino-4-fluoro-isoquinolin-6-ylamino)-9-benzyloxy-19-cyclopropanesulfonyl-3,13-dimethyl-3,13,15-triaza-tricyclo[14.3.1.1^6,10]henicosa-1(19),6(21),7,9,16(20),17-hexaene-4,14-dione, trifluoroacetic acid salt] | 115

Continued, values first:

Row | Ki [nM] | Molecule
23 | 5 | CN1Cc2cc(ccc2S(=O)(=O)C2CC2)NC(=O)CCc2cccc(c2)[C@@H](Nc2ccc3c(N)nccc3c2)C1=O (single isomer, unassigned) [Example 8]
24 | 5 | CN1Cc2cc(ccc2S(=O)(=O)C2CC2)NC(=O)CCc2cc(ccc2F)[C@@H](Nc2ccc3c(N)ncc(F)c3c2)C1=O (single isomer, unassigned) [Example 14]
25 | 5 | COc1ccc2cc1[C@@H](C)CN(C)C(=O)Nc1ccc(S(=O)(=O)C3CC3)c(c1)CN(C)C(=O)[C@@H]2Nc1ccc2c(N)ncc(F)c2c1 (single isomer, unassigned) [Example 31]
26 | 5 | COc1ccc2cc1CCC(=O)Nc1ccc(S(=O)(=O)C(F)(F)F)c(c1)CN(C)C(=O)[C@@H]2Nc1ccc2c(N)nccc2c1 (single isomer, unassigned) [Example 34, trifluoroacetic acid salt]
27 | 5 | C[C@@H]1CC(=O)Nc2ccc(S(=O)(=O)C3CC3)c(c2)CN(C)C(=O)[C@H](Nc2ccc3c(N)ncc(F)c3c2)c2ccc(OCC(F)F)c1c2 (single isomer, unassigned) [Example 38, trifluoroacetic acid salt]
28 | 5 | CN1Cc2cc(cc(F)c2OCC(F)F)NC(=O)CCc2cc(ccc2OCC(F)F)[C@@H](Nc2ccc(C(=N)N)cc2)C1=O (single isomer, unassigned) [Example 40, trifluoroacetic acid salt]
29 | 5 | CN1Cc2cc(cc(F)c2OC(CF)CF)NC(=O)CCc2cc(ccc2OCC(F)F)[C@@H](Nc2ccc(C(=N)N)cc2)C1=O (single isomer, unassigned) [Example 42, trifluoroacetic acid salt]
30 | 5 | C[C@@H]1CC(=O)Nc2ccc(OC(F)F)c(c2)CN(C)C(=O)[C@H](Nc2ccc(C(=N)N)cc2)c2ccc(OCC(F)F)c1c2 (single isomer, unassigned) [Example 43, trifluoroacetic acid salt]
31 | 5 | CN1Cc2cc(ccc2S(=O)(=O)C2CC2)NC(=O)CCc2cc(ccc2OCC(F)F)[C@@H](Nc2ccc3c(N)ncc(F)c3c2)C1=O [Example 21, (R)-11-(1-Amino-4-fluoro-isoquinolin-6-ylamino)-16-cyclopropane sulfonyl-7-(2,2-difluoro-ethoxy)-13-methyl-2,13-diaza-tricyclo[13.3.1.1^6,10]icosa-1(19),6,8,10(20),15,17-hexaene-3,12-dione trifluroracetic acid salt]
32 | 5 | CN1Cc2cc(ccc2S(=O)(=O)C2CC2)NC(=O)CCc2cc(ccc2OCC2CC2)[C@@H](Nc2ccc3c(N)ncc(F)c3c2)C1=O [Example 22, (R)-11-(1-Amino-4-fluoro-isoquinolin-6-ylamino)-16-cyclopropane sulfonyl-7-cyclopropylmethoxy-13-methyl-2,13-diaza-tricyclo[13.3.1.1^6,10]icosa-1(19),6,8,10(20),15,17-hexaene-3,12-dione trifluroracetic acid salt]

Reference: patent US9657006B2, “Macrocyclic factor VIIa inhibitors” (BRISTOL-MYERS SQUIBB COMPANY, priority 2013, dated 2017)
